From patent US20140051756A1, “METHOD FOR PREVENTING OR TREATING ARRHYTHMIA, METHOD FOR PREVENTING OR TREATING ATRIAL FIBRILLATION, MODEL OF SUSTAINED ATRIAL FIBRILLATION, METHOD FOR PRODUCING THE MODEL, AND METHOD FOR SCREENING FOR ATRIAL FIBRILLATION INHIBITOR” (Toho University, priority 2011, published 2014) come the findings set out here.

The structures appear in SMILES notation. Like-named read-outs stand apart in the source and are kept apart here.

Series [1] deals with model of sustained atrial fibrillation. Put plainly: Test Example 1: screening for atrial fibrillation inhibitor, intravenous injection, Holter electrocardiogram. As to conditions: for Frequency of Atrial Fibrillation Termination: X/Y individuals terminated.
The test system of series [2] is normal beagle dogs. Particulars: dog, in vivo, iv.
For series [3], the system named is normal beagle dogs. Put plainly: Test Example 3: study of effect on QT prolongation (ECG, MAP90, ERP).
Series [4] has as its system model of sustained atrial fibrillation. The experiment in a line: Test Example 2: study of dose and combined use of oseltamivir, with 24 hour follow-up for recurrence. Particulars: for Frequency of Atrial Fibrillation Recurrence: 24 hours follow-up after termination. In kind it is in vivo, beagle dog. An excerpt:
Oseltamivir (oseltamivir phosphate, trade name: TAMIFLU (registered trademark), product of CHUGAI PHARMACEUTICAL CO., LTD.; phosphate of the compound represented by Structural Formula (I))) and/or pilsicainide (pilsicainide hydrochloride, trade name: […] (registered trademark), product of DAIICHI SANKYO COMPANY, LIMITED), which had been diluted with saline to doses as described in Table 2-1, was intravenously injected to the model of sustained atrial fibrillation produced in Production Example 1 in doses described in Table 2-1 for 10 min.
During from before the administration to after the administration, the electrocardiogram was monitored in the same manner as in Test Example 1, and the frequency of atrial fibrillation termination and the defibrillation rate were determined in the same manner as in Test Example 1. For individuals in which atrial fibrillation was terminated, an electrocardiographic follow-up was performed for 24 hours after atrial fibrillation was terminated to thereby determine whether atrial fibrillation recurred.

Where [5] appears, read: 3 mg/kg intravenous over 10 min.
Setting [6] is: 30 mg/kg intravenous over 10 min.
[7] abbreviates: high dose 30 mg/kg intravenous over 10 min.
Where [8] appears, read: low dose 3 mg/kg intravenous over 10 min.

As to `CCN(CC)CCCN(c1ccccc1)C1Cc2ccccc2C1` [Aprindine, aprindine], in series [1] (setting [5]), the “Defibrillation Rate” value was 0% and the “Frequency of Atrial Fibrillation Termination” value is recorded as 0/6.

In the case of `Cc1cccc(C)c1NC(=O)CC12CCCN1CCC2` [Pilsicainide, pilsicainide], in series [2], the “MAP90 (CL300) versus MAP90 (CL400), MAP prolongation pattern” value (“MAP90 (CL300) versus MAP90 (CL400)” for short) is on record as “dangerous MAP prolongation pattern”; the “prolongation of QT and QTc, QT prolongation pattern” value (shortened to “prolongation of QT and QTc”) was “longer prolongations of QT and QTc than that of the oseltamivir-administered group, and a dangerous QT prolongation pattern”. Moreover, in series [1] (setting [5]), the “Defibrillation Rate” value came out at 33.3% and the “Frequency of Atrial Fibrillation Termination” value is recorded as 2/6.

Consider `CCOC(=O)C1=C[C@@H](OC(CC)CC)[C@H](NC(C)=O)[C@@H](N)C1` [Oseltamivir, oseltamivir], for which the “prolongation of QT and QTc” value in series [3] (anesthetized normal dogs, intravenous doses increased stepwise every 30 min (Table 3), FIGS. 7 to 10) is “short prolongations of QT and QTc and a safe QT prolongation pattern”. Also, the “prolongation of P wave width on the electrocardiogram (index of inhibitory effect on Na channels in the atrial muscle)” value in series [3] (sinus rhythm, 0.3, 3, 30 mg/kg intravenous stepwise, FIG. 7) is recorded as “longer prolongation of P wave”. The “MAP90 (CL300) versus MAP90 (CL400)” value in series [3] (ventricular pacing at cycle length 300 msec (200 bpm) and 400 msec (150 bpm), stepwise intravenous doses (Table 3)) is recorded as “safe MAP prolongation pattern”. In addition, in series [1] (setting [6]), the “Defibrillation Rate” value was determined as 91.7%, the “adverse effect on the ventricle” value was “does not adversely affect the ventricle” and the “Frequency of Atrial Fibrillation Termination” value was 11/12. Besides, in series [1] (30 mg/kg intravenous over 10 min, listed as oseltamivir), the “Defibrillation Rate” value is given as “very high”. In series [4] (setting [7]), the “Defibrillation Rate” value was 100%, the “Frequency of Atrial Fibrillation Termination” value is 5/5 and the “Frequency of Atrial Fibrillation Recurrence” value is on record as 2/5. Besides, in series [4] (setting [8]), the “Defibrillation Rate” value is given as 25%, the “Frequency of Atrial Fibrillation Termination” value is 1/4 and the “Frequency of Atrial Fibrillation Recurrence” value is on record as 0/1.

As for `c1ccc(C2(c3ccccc3)CC2C2=NCCN2)cc1` (centres unmarked) [Cibenzoline, cibenzoline], in series [1] (setting [5]), the “Defibrillation Rate” value is recorded as 33.3% and the “Frequency of Atrial Fibrillation Termination” value is given as 2/6.

As for `CC(C)N(CCC(C(N)=O)(c1ccccc1)c1ccccn1)C(C)C` (centres unmarked) [Disopyramide, disopyramide], in series [2], the “MAP90 (CL300) versus MAP90 (CL400)” value is recorded as “dangerous MAP prolongation pattern”; the “prolongation of QT and QTc” value was “longer prolongations of QT and QTc than that of the oseltamivir-administered group, and a dangerous QT prolongation pattern”. In series [1] (setting [5]), the “Frequency of Atrial Fibrillation Termination” value is reported as 1/6. For the same compound, the “death of the model animal after administration” value in series [1] (3 mg/kg intravenous, 1 individual, FIG. 6A) is on record as “confirmed to be dead”. In series [1] (3 mg/kg intravenous, 1 individual, FIGS. 6A to 6C), the “termination of atrial fibrillation on electrocardiogram” value is given as “could not terminate atrial fibrillation”.
